Experimental data from publication PMC9566605 (Cancer cell, 2022).

Legend:
[1] = test system: EG.7 cells; experiment: Viability and surface marker expression of treated EG.7 cells; format: cell-based, mouse
[2] = test system: H-2K^b associated peptides of EG.7 cells; format: cell-based, mouse
[3] = molecular target: T1, H-2K^b (Mus musculus, UniProt P01901); experiment: RMA-S binding assay; settings: 2.5 mM PNT before peptide loading
[4] = molecular target: T1, H-2K^b; experiment: RMA-S dissociation assay; format: binding; settings: PNT before loading with peptides
[5] = test system: proteasome; experiment: Proteasomal activity in tumor cell lysates; format: biochemical, mouse
[6] = test system: catalytic subunits of proteasomes; experiment: Amount of catalytic subunits of proteasomes in EG7 tumor cells; format: cell-based, mouse; settings: EG7 tumor cells treated with PNT or bortezomib
[7] = test system: EL4 cells; experiment: Empty MHC class I detection by […] loading of EL4 cells; format: cell-based, mouse; settings: EL4 cells treated with PNT, n=4
[8] = test system: EL4 tumor cells; settings: pre-treatment of tumor cells with PNT; 5:1 ratio, annexin V/DAPI, 5 and 16 hours
[9] = test system: human melanoma UACC903 cell line; experiment: SILAC LC-MS/MS of HLA-A, -B, -C bound peptides after PNT; settings: UACC903 cells
[10] = test system: B16F10-iNOS cells; experiment: CTL assay of Pmel-1 cells against mixed B16F10-control and B16F10-iNOS cells; format: cell-based, mouse; settings: B16F10-control and B16F10-iNOS mixed 1:1, activated Pmel-1 cells, pre-treated with RTA408
[11] = test system: nitrotyrosine (NT) in LLC tumor tissue; experiment: Immunofluorescent NT staining of LLC tumor tissue; format: in vivo, mouse; settings: LLC tumor-bearing mice treated with RTA408
[12] = molecular target: T2, H-2D^b (Mus musculus, UniProt P01899); experiment: RMA-S dissociation assay, H-2D^b; format: binding
T2 sequence (P01899 25-362): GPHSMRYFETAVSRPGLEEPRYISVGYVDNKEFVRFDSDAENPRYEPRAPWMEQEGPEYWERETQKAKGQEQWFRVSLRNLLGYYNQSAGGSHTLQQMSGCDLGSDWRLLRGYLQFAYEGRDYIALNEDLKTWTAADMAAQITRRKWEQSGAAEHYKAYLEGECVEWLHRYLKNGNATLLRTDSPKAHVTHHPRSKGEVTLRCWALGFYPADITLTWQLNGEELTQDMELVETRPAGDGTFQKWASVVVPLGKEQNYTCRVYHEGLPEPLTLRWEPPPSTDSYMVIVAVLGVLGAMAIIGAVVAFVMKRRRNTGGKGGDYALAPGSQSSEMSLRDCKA
T2 sequence (P01887 21-119 partner): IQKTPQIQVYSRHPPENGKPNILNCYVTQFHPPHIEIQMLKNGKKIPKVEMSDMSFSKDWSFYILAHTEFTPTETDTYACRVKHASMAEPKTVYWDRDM

T1 sequence (P01901 whole entry, looked up): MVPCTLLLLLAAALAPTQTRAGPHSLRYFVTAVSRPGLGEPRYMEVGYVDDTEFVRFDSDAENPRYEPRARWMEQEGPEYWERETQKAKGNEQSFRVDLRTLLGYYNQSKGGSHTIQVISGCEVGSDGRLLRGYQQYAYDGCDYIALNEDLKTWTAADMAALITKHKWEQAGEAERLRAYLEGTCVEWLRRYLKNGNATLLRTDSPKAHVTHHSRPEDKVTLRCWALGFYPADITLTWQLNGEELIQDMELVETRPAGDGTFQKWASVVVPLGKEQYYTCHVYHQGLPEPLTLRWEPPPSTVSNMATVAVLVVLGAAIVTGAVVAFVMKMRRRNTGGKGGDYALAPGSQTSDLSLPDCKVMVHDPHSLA

O=NOO [PNT, peroxynitrite]
NT (nitrotyrosine) expression ([1]; 2.5 mM PNT): substantial up-regulation | cell viability ([1]; 2.5 mM PNT): did not affect | expression of MHCI H-2K^b molecules ([1]; 2.5 mM PNT): did not affect | recovery of H-2K^b peptide profile ([2]; 2.5 mM PNT on ice 5 min, 16 h after the treatment): returned to the pre-treatment level | change in H-2K^b peptide profile ([2]; 2.5 mM PNT on ice 5 min, right after the treatment (0 min)): no substantial changes | effect of PNT pre-treatment of RMA-S cells on binding of the peptides [3]: only a small decrease | effect of PNT treatment of RMA-S cells on dissociation rates [4]: no detectable effect | effect on proteasomal activity in IFN-γ pre-treated vs non-pre-treated cells ([5]; EG7 and LLC cells, 100 ng/ml IFN-γ 24 hours, then PNT): the same | recovery of proteasomal activity over time ([5]; EG.7 cells, 2.5 mM PNT, chymotrypsin, trypsin and caspase-like activities): almost completely restored by 22 hours | proteasome types and activities affected ([5]; EL4 and LLC cell lines, 2.5 mM PNT 5 min on ice, proteasome-specific fluorogenic substrates): affected mostly chymotrypsin- and trypsin-like activities associated with constitutive proteasomes | proteasomal activity ([5]; tumor cells treated with 2.5 mM PNT for 5 min, n=3): profound decrease | amount of 6 catalytic subunits of proteasomes [6]: did not affect | total H-2Kb expression, PNT-treated vs control cells [7]: no differences | killing of tumor cells by CTLs generated against PNT-resistant peptides [8]: did not affect killing | change in HLA-A, -B, -C bound peptide profile [9]: substantially changed the peptide profile

CC1(C)CC[C@]2(NC(=O)C(C)(F)F)CC[C@]3(C)[C@H](C(=O)C=C4[C@@]5(C)C=C(C#N)C(=O)C(C)(C)[C@@H]5CC[C@]43C)[C@@H]2C1 [RTA408, Omaveloxolone]
resistance of B16F10-iNOS cells to killing by CTLs [10]: completely abrogated resistance | NT staining in tumor tissues [11]: reduced NT staining

EGSRNQDWL
dissociation from H-2D^b [12]: dissociated significantly faster

CC(C)C[C@H](NC(=O)[C@H](Cc1ccccc1)NC(=O)c1cnccn1)B(O)O [bortezomib]
expression of MHC class I (H2K^b) ([1]; 15 nM bortezomib): did not affect | viability of tumor cells ([1]; 15 nM bortezomib): did not affect | representation of MHCI peptides vs non-treated cells ([2]; EG.7 cells, 15 nM bortezomib): substantial decrease | proteasomal activity ([5]; EG.7 cells, 15 nM bortezomib, N=5): modest inhibition | amount of 6 catalytic subunits of proteasomes [6]: did not affect
